Literature values, collected in patent publication US20250339390A1 (priority 2018, published 2025).

O=NN(CCCl)C(=O)NCCCl [Carmustine, 1,3-bis(2-chloroethyl)-1-nitrosourea]
solubility in water: poorly soluble
